Assay results as given in US20230157302A1, “METHODS FOR […] MYCOTOXIN PRODUCTION” (Institut National de Recherche Pour L'Agriculture, …, priority 2020, published 2023).
“Also recorded” adds a separate entry of the source.

Tests used:
[1] = system: F. graminearum CBS 185.32; assay type: cell-based, Fusarium graminearum
[2] = system: F. graminearum CBS 185.32; assay type: cell-based, Fusarium graminearum; remark: listed apart in the source
[3] = system: Fusarium culmorum and Fusarium graminearum; details: cited from earlier work

Q: With “C G N F L K R T C I C V K K (CGNFLKRTCICVKK) [TickCore3, conserved linear gamma core moiety of the tick defensin DefMT3]” as the substance, how does the 15-ADON production [1] read?
A: non-detectable levels; also recorded: residual levels

Q: What about the DON production [1] of the same substance?
A: non-detectable levels

Q: What about the “inhibition of TCTB mycotoxin production (DON and 15-ADON together)” value (“inhibition of TCTB mycotoxin production” below) [1] of the same substance?
A: inhibits the production of category B trichothecenes

Q: And the “fungal growth / dry fungal biomass (antifungal activity)” value (“fungal growth / dry fungal biomass” for short) [2]?
A: significantly inhibited fungal growth at all the concentrations tested

Q: For “C G N F L K R T C I C V K T (CGNFLKRTCICVKT) [TickCore3-K14T]”, which “fungal growth / dry fungal biomass” value [2] is on record?
A: strong antifungal activity only at 50 μM

Q: With “C G N F L K R T C I C V T K (CGNFLKRTCICVTK) [TickCore3-K13T]” as the substance, how does the “fungal growth / dry fungal biomass” value [2] read?
A: strong antifungal activity only at 50 μM

Q: Which “fungal growth / dry fungal biomass” value [2] does the source give for “C G N F L K T T C I C V K K (CGNFLKTTCICVKK) [TickCore3-R7T]” here?
A: strong antifungal activity only at 50 μM

Q: With “C G N F L T R T C I C V K K (CGNFLTRTCICVKK) [TickCore3-K6T]” as the substance, how does the “inhibition of TCTB mycotoxin production” value [1] read?
A: reduction in the ability to inhibit TCTB production is particularly pronounced

Q: And the “fungal growth / dry fungal biomass” value [2]?
A: no antifungal activity below the concentration at 50 μM

Q: Which 15-ADON production [1] does the source give for “C(CH3)GNFLKRTC(CH3)IC(CH3)VKK [TickCore3-CH3-123]” here?
A: significantly less

Q: And the DON production [1]?
A: significantly less

Q: What about the “inhibition of TCTB mycotoxin production” value [1] of the same substance?
A: little effect on the inhibitory effect affecting TCTB production

Q: For “C(CH3)GNFLKRTCRICVKK [TickCore3-CH3-1 Ox]”, which 15-ADON levels [1] is on record?
A: significant reduction

Q: What about the DON levels [1] of the same substance?
A: significant reduction

Q: And the “fungal growth / dry fungal biomass” value [2]?
A: no effect on fungal growth at any of the concentrations tested

Q: Which 15-ADON production [1] does the source give for “CGNFLKRTC(CH3)ICVKK [TickCore3-CH3-2 Ox]” here?
A: did not change significantly

Q: And the DON production [1]?
A: significant increase

Q: And the “fungal growth / dry fungal biomass” value [2]?
A: no effect on fungal growth at any of the concentrations tested

Q: What does the source list for “CGNFLKRTCIC(CH3)VKK [TickCore3-CH3-3 Ox]”?
A: 15-ADON production [1]: significant increase; DON production [1]: significant increase; fungal growth / dry fungal biomass (antifungal activity) [2]: no effect on fungal growth at any of the concentrations tested

Q: For “DefMT6: tick defensin described in Tonk et al., 2015 (GFGCPLNQGACHNHCRSIKRRGGYCSGIIKQTCTCYRK; DefMT6) [reference compound]”, which “antibacterial and antifungal activity” value [3] is on record?
A: antibacterial and antifungal activity

Q: Which 15-ADON production [1] does the source give for “GGYYCPFRQDKCHRHCRSFGRKAGYCGNFLKRTCICVKK (DefMT3) [tick defensin, synthesized by SPPS]” here?
A: shows inhibitory activity

Q: And the DON production [1]?
A: shows inhibitory activity

Q: What about the “antibacterial and antifungal activity” value [3] of the same substance?
A: antibacterial and antifungal activity
